Consider 3 compounds from patent publication US20250026746A1, “ENHANCERS OF PARTICULATE GUANYLYL CYCLASE RECEPTOR A” (Mayo Foundation for Medical Education and Research, priority 2021, published 2025).

Test [1] concerns spontaneously hypertensive rats. Kind of test: In vivo actions in spontaneously hypertensive rats (cGMP, blood pressure, renal function). More on the design: species or system rat. As to conditions: acetate salt, 10 mg/kg single IV bolus, SHR; for plasma cGMP: 15 minutes after administration; for diastolic blood pressure: 60 minutes post-bolus; for diastolic blood pressure / urinary sodium excretion / urinary volume / systolic blood pressure: vs vehicle (and Compound 2); for urinary sodium excretion / urinary volume: post-bolus; for systolic blood pressure: throughout 60 minutes post bolus. The procedure: The cGMP generating, blood pressure lowering and renal enhancing actions of a single intravenous (IV) bolus dose of Compound 3, Compound 1 or Compound 2 acetate salt (n=4/small molecule form: 10 mg/kg) or Vehicle (n=5: 15% DMSO/60% PEG300/25% PBS) in spontaneously hypertensive rats (SHRs; male: 12 weeks old) were investigated. Studies were performed in accordance with the Animal Welfare Act and with approval of the Mayo Clinic Institutional Animal Care and Use Committee.
SHRs were administered Inactin (100 mg/kg: IP) to induce anesthesia and then maintained with additional Inactin (100 mg/kg: IP), as required. Once adequate anesthesia was achieved, the anesthetized SHRs were placed on a heating table set at 37° C. to maintain body temperature for the entire study and then were subjected to vessel and bladder cannulation. A polyethylene (PE)-50 tube catheter was placed into the jugular vein for saline, Compound 3, Compound 1, Compound 2 or vehicle IV administration. The carotid artery was cannulated with a PE-50 tube catheter for blood pressure monitoring (Sonometrics, London, Ontario, Canada) and blood sampling/collection. The bladder was accessed and cannulated with a PE-90 tube catheter for passive urine collection. After completion of the procedural set up, a 45-minute equilibration period was performed that included continuous IV saline infusion, a 30-minute baseline (pre-bolus) urine collection and a single baseline blood sample at the end of the 30-minute baseline urine collection. […] BP was monitored and recorded, beginning prior to IV bolus administration (0-minute post-bolus) and then at 15, 30, 45 and 60 minutes post-bolus. At the end of the 60-minute clearance, the anesthetized rats were euthanized by exsanguination and all blood and urine samples were stored at −80° C. until assayed. Plasma and urinary cGMP levels were measured using a cGMP ELISA kit (Enzo Life Sciences, Farmingdale, NY) as instructed by the manufacturer. Urinary sodium concentrations were determined with an electrolyte analyzer (Diamond Diagnostics Inc., Holliston, MA).

The target in another test is T1, human GC-A (Homo sapiens, UniProt P16066).
T1 construct: host or cells: HEK293
T1 sequence (P16066 33-1061): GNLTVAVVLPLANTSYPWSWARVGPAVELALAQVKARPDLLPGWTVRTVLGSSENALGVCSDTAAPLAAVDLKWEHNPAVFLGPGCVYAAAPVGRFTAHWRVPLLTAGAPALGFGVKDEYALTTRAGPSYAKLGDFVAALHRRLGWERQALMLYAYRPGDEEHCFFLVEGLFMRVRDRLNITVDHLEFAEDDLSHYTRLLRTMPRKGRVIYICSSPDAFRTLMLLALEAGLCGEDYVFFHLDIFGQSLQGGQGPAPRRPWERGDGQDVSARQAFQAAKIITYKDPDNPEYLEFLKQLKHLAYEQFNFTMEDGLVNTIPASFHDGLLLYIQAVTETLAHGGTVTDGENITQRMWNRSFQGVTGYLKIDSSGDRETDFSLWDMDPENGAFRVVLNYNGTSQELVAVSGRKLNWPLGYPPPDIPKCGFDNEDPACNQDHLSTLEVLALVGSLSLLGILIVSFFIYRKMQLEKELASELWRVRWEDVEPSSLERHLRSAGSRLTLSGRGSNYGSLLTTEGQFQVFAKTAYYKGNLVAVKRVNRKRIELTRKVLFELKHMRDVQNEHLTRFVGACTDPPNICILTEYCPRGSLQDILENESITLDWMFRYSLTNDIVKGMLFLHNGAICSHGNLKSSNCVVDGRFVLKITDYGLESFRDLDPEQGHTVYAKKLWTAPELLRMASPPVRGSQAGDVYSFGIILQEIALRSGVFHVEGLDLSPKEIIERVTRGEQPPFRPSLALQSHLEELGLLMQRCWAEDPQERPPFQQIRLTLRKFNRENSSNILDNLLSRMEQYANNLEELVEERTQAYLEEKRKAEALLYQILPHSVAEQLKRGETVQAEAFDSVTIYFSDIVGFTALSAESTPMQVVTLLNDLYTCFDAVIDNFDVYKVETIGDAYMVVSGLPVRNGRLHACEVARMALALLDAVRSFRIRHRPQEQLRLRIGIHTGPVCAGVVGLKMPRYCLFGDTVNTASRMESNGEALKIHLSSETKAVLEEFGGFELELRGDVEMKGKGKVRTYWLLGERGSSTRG
T1 sequence (P01160 124-151 partner limits assumed): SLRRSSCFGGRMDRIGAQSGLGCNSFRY
Kind of test: cGMP levels (ELISA) in HEK293 cells overexpressing human GC-A. The test is classed as cell-based. The note with it: acetate salt; for cGMP generation in the presence of ANP: ANP (10^−10 M). The procedure:
HEK293 GC-A cells were seeded in 48-well plates (1×10^5 cell per well) and cultured overnight to reach 80-90% confluency. The treatment buffer that consists of Hank's Balanced Salt Solution (HBSS), 0.1% BSA, 2 mM HEPES and 0.5 mM 3-isobutyl-1-methylzanthine (IBMX—a non-specific phosphodiesterase inhibitor), was used in all experiments. Compound 3, Compound 1, and Compound 2 acetate salt were dissolved in DMSO and ANP was dissolved in phosphate buffered solution (PBS). On the experimental day, growth media was replaced with treatment buffer and HEK293 GC-A cells were 1) treated with Compound 3, Compound 1 or Compound 2 at doses of 1 or 10 μM (reaching a final concentration of 0).1% DMSO) alone for 5 min at 37° C.: or 2) pretreated with Compound 3, Compound 1 or Compound 2 at doses of 1 or 10 μM (reaching a final concentration of 0.1% DMSO) for 5 min at 37° C., followed by a treatment with ANP (10^-10 M) for additional 10 min at 37° C. HEK293 GC-A cells were also treated with vehicle (0.1% DMSO) which served as a negative control. Then all cells were washed with PBS once and lysed with 0.1M HCl. Intracellular cGMP was measured in the lysate using a commercial cGMP ELISA kit (Enzo Life Sciences, Farmingdale, NY) as instructed by the manufacturer.
In general terms: In an ELISA, binding on a coated surface is turned into a signal by an enzyme label.

On to `CN(C)CCN1CCCC(C(=O)Nc2nc3c(F)cc(F)cc3s2)C1` (racemic) [Compound 3, N-(4,6-difluorobenzo[d]thiazol-2-yl)-1-(2-(dimethylamino)ethyl) piperidine-3-carboxamide], for which, in test [1], the “plasma cGMP” value is “increase”, the “urinary cGMP” value is listed as “increase”, the diastolic blood pressure result is listed as “greater reduction” and the urinary sodium excretion entry is “greater increase”. In test [1], the urinary volume result is recorded as “greater increase” and the systolic blood pressure entry is on record as “greater reduction”. Also, the “cGMP generation in the presence of ANP” value on human GC-A (1 or 10 μM) is given as “dose dependent increase”. Also, at human GC-A (1 or 10 μM, without ANP, vs vehicle), the “cGMP generation, compound alone” value is given as “no effect”.
For the compound `CN(C)CCN1CCC[C@H](C(=O)Nc2nc3c(F)cc(F)cc3s2)C1` [Compound 1, (S)-N-(4,6-difluorobenzo[d]thiazol-2-yl)-1-(2-(dimethylamino)ethyl) piperidine-3-carboxamide], in test [1], the “plasma cGMP” value is given as “increase”, the “urinary cGMP” value is reported as “increased”, the diastolic blood pressure result is on record as “more effective” and the urinary sodium excretion result is “more effective”. In test [1], the urinary volume result is recorded as “more effective” and the systolic blood pressure entry was “more effective”. Moreover, at human GC-A (1 or 10 μM), the “cGMP generation in the presence of ANP” value is recorded as “dose response increase”. Besides, the “cGMP generation in the presence of ANP, Compound 1 compared with Compound 2” value at human GC-A (both doses (1 and 10 μM), ANP (10^-10 M)) was “higher”.
Consider `CN(C)CCN1CCC[C@@H](C(=O)Nc2nc3c(F)cc(F)cc3s2)C1` [Compound 2, (R)-N-(4,6-difluorobenzo[d]thiazol-2-yl)-1-(2-(dimethylamino)ethyl) piperidine-3-carboxamide], for which, in test [1], the “plasma cGMP” value is given as “increase” and the “urinary cGMP” value was “did not increase”. Moreover, on human GC-A (1 or 10 μM), the “cGMP generation in the presence of ANP” value was “dose response increase”.
